Experimental data reported in patent US5523315A, “N-(hydroxyethyl)butanediamide derivatives” (Bio-Mega/Boehringer Ingelheim Research Inc., priority 1993, dated 1996).

Molecular target: T1, human renin (Homo sapiens, UniProt P00797)
T1 construct: A human plasma pool is used as the source of both the substrate (angiotensinogen) and the enzyme (renin); from tissue; host or cells: pooled human plasma
T1 sequence (P00797 67-406): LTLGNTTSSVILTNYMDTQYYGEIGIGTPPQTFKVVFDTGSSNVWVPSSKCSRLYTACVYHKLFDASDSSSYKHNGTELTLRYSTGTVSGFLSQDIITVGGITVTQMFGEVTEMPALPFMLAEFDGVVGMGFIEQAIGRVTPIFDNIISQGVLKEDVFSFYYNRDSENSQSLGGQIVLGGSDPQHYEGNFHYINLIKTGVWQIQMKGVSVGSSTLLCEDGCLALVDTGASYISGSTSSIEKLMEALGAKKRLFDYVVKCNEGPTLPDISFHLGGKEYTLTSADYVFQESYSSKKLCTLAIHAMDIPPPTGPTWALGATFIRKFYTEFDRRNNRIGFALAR
Experiment: plasma renin assay (inhibition of human renin; angiotensin I generated, measured by radioimmunoassay)
Assay type: biochemical
Settings: human plasma pool, pH 6.0, 2 h incubation at 37°
Experimental: The assay is performed as follows: The test compound (i.e. the inhibitor) is dissolved in dimethylsulfoxide (1 mM stock solution) and diluted with an aqueous buffer solution of 270 mM 2-(N-morpholino)ethanesulfonic acid and 1% human serum albumin (pH 5.85, also containing dimercaprol and 8-hydroxyquinoline sulfate in accordance with the instructions of the RIA kit noted below) to give an assay mixture in which the final dimethylsulfoxide content is 1% (v/v).
A human plasma pool is used as the source of both the substrate (angiotensinogen) and the enzyme (renin). The reaction is initiated by the addition of 50 μL of human plasma pool to 50 μL of various concentrations of inhibitor in the 1% dimethylsulfoxide assay buffer. The plasma renin activity is measured by the amount of angiotensin I generated at pH 6.0 following a 2 h incubation at 37°.
Quantitation of angiotensin I is performed by radioimmunoassay (RIA kit from New England Nuclear-Dupont, Mississauga, ON, Canada). The enzymatic activity of renin is expressed in ng of angiotensin I generated (/mL/2 h). The extent of inhibition of the reaction is determined from the amount of angiotensin I generated in reference to a control prepared without inhibitor. Nonlinear regression analysis is used to calculate the IC50 values, i.e. the molar concentration of the test compound required to cause a 50% inhibition of the enzyme activity.

SMILES | IC50 [nM]
CC(C)C[C@H](O)[C@H](O)[C@H](CC1CCCCC1)NC(=O)[C@@H](CC(=O)N(CC(=O)N(C)C)CC1(O)CCCCC1)CC1CC1 [Compound 23, N^4-[(1-hydroxycyclohexyl)methyl]-N^4-[2-(dimethylamino)-2-oxoethyl]-N^1-[1(S)-(cyclohexylmethyl)-2(R),3(S)-dihydroxy-5-methylhexyl]-2(R)-(cyclopropylmethyl)butanediamide] | 16
CC(C)C[C@H](O)[C@H](O)[C@H](CC1CCCCC1)NC(=O)[C@@H](CC(=O)N(CC1CCCCC1)CC1(O)CCCCC1)CC1CC1 [Compound 25, N^4-(cyclohexylmethyl)-N^4-[(1-hydroxycyclohexyl)methyl]-N^1-[1(S)-(cyclohexylmethyl)-2(R),3(S)-dihydroxy-5-methylhexyl]2(R)-(cyclopropylmethyl)butanediamide] | 79
CC(C)C[C@H](O)[C@H](O)[C@H](CC1CCCCC1)NC(=O)[C@@H](CC(=O)N(Cc1cccnc1)CC1(O)CCCCC1)CC1CC1 [Compound 26, N^4-[(1-hydroxycyclohexyl)methyl]-N^4-(3-pyridinylmethyl)-N^1-[1(S)-(cyclohexylmethyl)-2(R),3(S)-dihydroxy-5-methylhexyl]-2(R)-(cyclopropylmethyl)butanediamide] | 26
CC(C)C[C@H](O)[C@H](O)[C@H](CC1CCCCC1)NC(=O)[C@@H](CC(=O)N(Cc1ccccc1)CC1(O)CCCCC1)Cc1c[nH]cn1 [Compound 28] | 53
CC(C)C[C@H](O)[C@H](O)[C@H](CC1CCCCC1)NC(=O)[C@@H](CC(=O)N(Cc1ccncc1)CC1(O)CCCCC1)CC1CC1 [Compound 29] | 31
CC(C)C[C@H](O)[C@H](O)[C@H](CC1CCCCC1)NC(=O)[C@@H](CC(=O)N(CCO)CC1CCCCC1)CC1CC1 [Compound 31, N^4-(cyclohexylmethyl)-N^4-(2-hydroxyethyl)-N^1-[1(S)-(cyclohexylmethyl)-2(R),3(S)-dihydroxy-5-methylhexyl]-2(R)-(cyclopropylmethyl)butanediamide] | 100
CC(C)C[C@H](O)[C@H](O)[C@H](CC1CCCCC1)NC(=O)[C@@H](CC(=O)N(CC1CCCCC1)CC(C)(C)O)CC1CC1 [Compound 32, N^4-(cyclohexylmethyl)-N^4-(2-hydroxy-2-methylpropyl)-N^1-[1(S)-(cyclohexylmethyl)-2(R),3(S)-dihydroxy-5-methylhexyl]-2(R)-(cyclopropylmethyl)butanediamide] | 46
CC(C)C[C@H](O)[C@H](O)[C@H](CC1CCCCC1)NC(=O)[C@@H](CC(=O)N(C)CC1(O)CCCCC1)Cc1c[nH]cn1 [Compound 35, N^4-[(1-hydroxycyclohexyl)methyl]-N^4-methyl-N^1-[1(S)-(cyclohexylmethyl)-2(R),3(S)-dihydroxy-5-methylhexyl]-2(R)-(1H-imidazol-4-ylmethyl)-butanediamide] | 67
CC(C)C[C@H](O)[C@H](O)[C@H](CC1CCCCC1)NC(=O)[C@@H](CC(=O)N(CCO)CC1(O)CCCCC1)Cc1cscn1 [Compound 37, N^4-[(1-hydroxycyclohexyl)methyl]-N^4-(2-hydroxyethyl)-N^1-[1(S)-(cyclohexylmethyl)-2(R),3(S)-dihydroxy-5-methylhexyl]-2(R)-(4-thiazolylmethyl)butanediamide] | 16
CC(C)C[C@H](O)[C@H](O)[C@H](CC1CCCCC1)NC(=O)[C@@H](CC(=O)N[C@@H](CO)CC1CCCCC1)Cc1cscn1 [Compound 45] | 37

These reach a lower IC50. Values come first.

IC50 [nM] | SMILES
1.8 | CC(C)C[C@H](O)[C@H](O)[C@H](CC1CCCCC1)NC(=O)[C@@H](CC(=O)N(CC(=O)N(C)C)CC1(O)CCCCC1)Cc1c[nH]cn1 [Compound 24, N^4-[(1-hydroxycyclohexyl)methyl]-N^4-[2-(dimethylamino)-2-oxoethyl]-N^1-[1(S)-(cyclohexylmethyl)-2(R),3(S)-dihydroxy-5-methylhexyl]-2(R)-(1H-imidazol-4-ylmethyl)-butanediamide]
15 | CC(C)C[C@H](O)[C@H](O)[C@H](CC1CCCCC1)NC(=O)[C@@H](CC(=O)N(Cc1ccccc1)CC1(O)CCCCC1)Cc1cscn1 [Compound 27, N^4-benzyl-N^4-[ (1-hydroxycyclohexyl)methyl]-N^1-[1(S)-(cyclohexylmethyl)-2(R),3(S)-dihydroxy-5-methylhexyl]-2(R)-(4-thiazolylmethyl)butanediamide]
12 | CC(C)C[C@H](O)[C@H](O)[C@H](CC1CCCCC1)NC(=O)[C@@H](CC(=O)N(C)CC1(O)CCCCC1)Cc1cscn1 [Compound 30, N^4-[(1-hydroxycyclohexyl)methyl]-N^4-methyl-N^1-[1(S)-(cyclohexylmethyl)-2(R),3(S)-dihydroxy-5-methylhexyl]-2(R)-(4-thiazolylmethyl)butanediamide]
11 | CC(C)C[C@H](O)[C@H](O)[C@H](CC1CCCCC1)NC(=O)[C@@H](CC(=O)N(Cc1ccc2c(c1)OCO2)CC1(O)CCCCC1)Cc1cscn1 [Compound 33, N^4-[(1-hydroxycyclohexyl)methyl]-N^4-[(3,4-methylenedioxyphenyl)methyl]-N^1-[1(S)-(cyclohexylmethyl)-2(R),3(S)-dihydroxy-5-methylhexyl]-2(R)-(4-thiazolylmethyl)butanediamide]
1.6 | CC(C)C[C@H](O)[C@H](O)[C@H](CC1CCCCC1)NC(=O)[C@@H](CC(=O)N(CC(=O)N(C)C)CC1(O)CCCCC1)Cc1cscn1 [Compound 34, N^4-[(1-hydroxycyclohexyl)methyl]-N^4-[2-(dimethylamino)-2-oxoethyl]-N^1-[1(S)-(cyclohexylmethyl)-2(R),3(S)-dihydroxy-5-methylhexyl]-2(R)-(4-thiazolylmethyl)butanediamide]
7.1 | CC(C)C[C@H](O)[C@H](O)[C@H](CC1CCCCC1)NC(=O)[C@@H](CC(=O)N(CC1CCCCC1)CC(C)(C)O)Cc1cscn1 [Compound 36, N^4-(cyclohexylmethyl)-N^4-(2-hydroxy-2-methylpropyl)-N^1-[1(S)-(cyclohexylmethyl)-2(R),3(S)-dihydroxy-5-methylhexyl]-2(R)-(4-thiazolylmethyl)butanediamide]
15 | CN(C)C(=O)CN(CC1(O)CCCCC1)C(=O)C[C@@H](CC1CC1)C(=O)N[C@@H](CC1CCCCC1)[C@@H](O)[C@@H]1CC(C)(C)N(C)C1=O [Compound 38, N^4-[(1-hydroxycyclohexyl)methyl]-N^4-[2-(dimethylamino)-2-oxoethyl]-N^1-[1(S)-(cyclohexylmethyl)-2(S)-hydroxy-2-(1,5,5-trimethyl-2-oxopyrrolidin-3(S)-yl)ethyl]-2(R)-(cyclopropylmethyl)butanediamide]
9 | CC(C)C[C@H](O)[C@H](O)[C@H](CC1CCCCC1)NC(=O)[C@@H](CC(=O)N(CC1CCCCC1)CC(C)(C)O)Cc1csc(N)n1 [Compound 41, N^4-(cyclohexylmethyl)-N^4-(2-hydroxy-2-methylpropyl)-N^1-[1(S)-(cyclohexylmethyl)-2(R),3(S)-dihydroxy-5-methylhexyl]-2(R)-[(2-amino-4-thiazolyl)methyl]butanediamide]
14 | CC(C)C[C@H](O)[C@H](O)[C@H](CC1CCCCC1)NC(=O)[C@@H](CC(=O)N(CC1CCCCC1)CC(C)(C)O)Cc1c[nH]cn1 [Compound 43, N^4-(cyclohexylmethyl)-N^4-(2-hydroxy-2-methylpropyl)-N^1-[1(S)-(cyclohexylmethyl)-2(R),3(S)-dihydroxy-5-methylhexyl]-2(R)-(1H-imidazol-4-ylmethyl)butanediamide]
1.3 | CC(C)C[C@H](O)[C@H](O)[C@H](CC1CCCCC1)NC(=O)[C@@H](CC(=O)N(CC(=O)N(C)C)CC1(O)CCCCC1)Cc1csc(N)n1 [Compound 46, N^4-[2-(dimethylamino)-2-oxoethyl]-N^4-[(1-hydroxycyclohexyl)methyl]-N^1-[1(S)-(cyclohexylmethyl)-2(R),3(S)-dihydroxy-5-methylhexyl]-2(R)-[(2-amino-4-thiazolyl)methyl]butanediamide]
7 | CC(C)C[C@H](O)[C@H](O)[C@H](CC1CCCCC1)NC(=O)[C@@H](CC(=O)N(CC1CCCC1)CC(C)(C)O)Cc1csc(N)n1 [Compound 47, N^4-(cyclopentylmethyl)-N^4-(2-hydroxy-2-methylpropyl)-N^1-[1(S)-(cyclohexylmethyl)-2(R),3(S)-dihydroxy-5-methylhexyl]-2(R)-[(2-amino-4-thiazolyl)methyl]butanediamide]
5 | CC(C)C[C@H](O)[C@H](O)[C@H](CC1CCCCC1)NC(=O)[C@@H](CC(=O)N(CC1CCCCCC1)CC(C)(C)O)Cc1csc(N)n1 [Compound 48, N^4-(cycloheptylmethyl)-N^4-(2-hydroxy-2-methylpropyl)-N^1-[1(S)-(cyclohexylmethyl)-2(R),3(S)-dihydroxy-5-methylhexyl]-2(R)-[(2-amino-4-thiazolyl)methyl]butanediamide]
